The source made the active and inactive calls.
Columns and labels:
[1] = target: Sphingosine 1-phosphate receptor 5 (Homo sapiens, UniProt Q9H228); assay: Late stage counterscreen assay for S1P4 antagonists: Fluorescence dose response cell-based screening assay for antagonists of the Sphingosine 1-Phosphate Receptor 5 (S1P5). [Related pubchem assays (depositor defined):AID1510, AID1524, AID1692, AID1853, AID2332, AID489009, AID489017]; format: functional
[2] = target: Sphingosine 1-phosphate receptor 3 (Homo sapiens, UniProt Q99500); assay: Late stage counterscreen assay for S1P4 antagonists: Fluorescence dose response cell-based screening assay for antagonists of the Sphingosine 1-Phosphate Receptor 3 (S1P3). [Related pubchem assays (depositor defined):AID1510, AID1524, AID1692, AID1853, AID2332, AID489009, AID489017]; format: functional
Sphingosine 1-phosphate receptor 3, sequence (Q99500 whole entry): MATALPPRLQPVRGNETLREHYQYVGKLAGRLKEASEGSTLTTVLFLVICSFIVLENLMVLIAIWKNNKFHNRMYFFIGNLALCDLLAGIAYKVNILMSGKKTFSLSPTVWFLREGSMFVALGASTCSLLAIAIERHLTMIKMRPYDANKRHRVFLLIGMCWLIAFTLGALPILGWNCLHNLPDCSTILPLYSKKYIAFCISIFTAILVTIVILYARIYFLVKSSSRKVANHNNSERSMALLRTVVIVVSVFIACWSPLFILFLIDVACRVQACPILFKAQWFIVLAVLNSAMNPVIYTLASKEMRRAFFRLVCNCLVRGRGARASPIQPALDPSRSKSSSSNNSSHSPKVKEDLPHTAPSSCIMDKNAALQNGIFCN

[3] = inhibitors of firefly luciferase expression or activity, dose response, H4 neuroglioma cells, luminescence (AID 1990); format: functional, cell-based
[4] = tested on: Streptococcus sp. 'group A'; assay: growth inhibition of control SK(-) GAS strain, dose response, counter-screen for streptokinase expression inhibitor project, luminescence, kanamycin, BacTiterGlo, confirmation (AID 1900); format: functional, organism-based
[5] = target: T1, Sphingosine 1-phosphate receptor 1 (Homo sapiens, UniProt P21453); assay: Late stage counterscreen assay for S1P4 antagonists: Fluorescence dose response cell-based screening assay for antagonists of the Sphingosine 1-Phosphate Receptor 1 (S1P1). [Related pubchem assays (depositor defined):AID1510, AID1524, AID1692, AID1853, AID2332, AID489009, AID489017]; format: functional
T1 sequence (P21453 whole entry): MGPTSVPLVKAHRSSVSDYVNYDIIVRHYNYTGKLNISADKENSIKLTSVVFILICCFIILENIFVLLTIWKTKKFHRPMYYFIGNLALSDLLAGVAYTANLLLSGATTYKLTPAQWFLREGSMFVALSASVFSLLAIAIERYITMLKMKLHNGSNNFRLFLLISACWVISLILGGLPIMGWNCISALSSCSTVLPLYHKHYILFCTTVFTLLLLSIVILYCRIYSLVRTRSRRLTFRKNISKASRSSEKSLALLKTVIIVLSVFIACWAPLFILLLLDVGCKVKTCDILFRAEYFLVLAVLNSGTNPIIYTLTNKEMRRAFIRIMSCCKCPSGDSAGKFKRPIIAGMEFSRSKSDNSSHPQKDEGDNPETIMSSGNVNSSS

[6] = Luminescence Cell-Based Dose Response HTS to Identify Inhibitors of 5'UTR Stem-Loop Driven Prion Protein mRNA Translation in H4 Neuroglioblastoma Cells. [Related pubchem assays: 1827 (Project Summary), 1813 (Primary HTS)]; format: functional
[7] = inhibitors of SNCA 5'UTR-driven reporter translation, confirmation, H4 neuroglioma cells, luminescence (AID 1988); format: functional, cell-based
[8] = target: T2, Streptokinase A (Streptococcus pyogenes serotype M1, UniProt P10520); assay: S. pyogenes streptokinase expression inhibitors, potency, dose response, plasminogen activation absorbance, OD405 (AID 1914); format: functional, Streptococcus pyogenes M1 GAS;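 also: secreted streptokinase activity via plasminogen activation per viability signal from cell pellet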
T2 sequence (P10520 whole entry): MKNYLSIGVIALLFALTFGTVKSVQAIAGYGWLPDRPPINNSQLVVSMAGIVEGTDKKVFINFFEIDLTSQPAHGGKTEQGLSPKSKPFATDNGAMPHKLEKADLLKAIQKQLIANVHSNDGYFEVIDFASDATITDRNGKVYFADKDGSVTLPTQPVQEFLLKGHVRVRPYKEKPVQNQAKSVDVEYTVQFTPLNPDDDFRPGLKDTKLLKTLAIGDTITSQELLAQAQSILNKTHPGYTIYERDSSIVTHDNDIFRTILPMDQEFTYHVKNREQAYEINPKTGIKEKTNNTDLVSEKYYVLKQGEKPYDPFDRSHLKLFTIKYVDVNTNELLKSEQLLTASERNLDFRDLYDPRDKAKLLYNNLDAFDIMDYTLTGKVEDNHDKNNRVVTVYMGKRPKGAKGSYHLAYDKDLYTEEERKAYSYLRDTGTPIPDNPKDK

[9] = inhibitors of intracellular T. cruzi replication, confirmation, NIH3T3 host cells, beta-gal luminescence (AID 2044); format: functional, cell-based;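 also: intracellular parasites grown in NIH/3T3 mouse fibroblasts as host cells; luminescent beta-galactosidase reporter signal from transgenic T. cruzi replicating inside host cells; inhibitors lower the luminescence signal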
[10] = target: Sphingosine 1-phosphate receptor 2 (Homo sapiens, UniProt O95136); assay: Late stage counterscreen assay for S1P4 antagonists: Fluorescence dose response cell-based screening assay for antagonists of the Sphingosine 1-Phosphate Receptor 2 (S1P2). [Related pubchem assays (depositor defined):AID1510, AID1524, AID1692, AID1853, AID2332, AID489009, AID489017]; format: functional
Sphingosine 1-phosphate receptor 2, sequence (O95136 whole entry): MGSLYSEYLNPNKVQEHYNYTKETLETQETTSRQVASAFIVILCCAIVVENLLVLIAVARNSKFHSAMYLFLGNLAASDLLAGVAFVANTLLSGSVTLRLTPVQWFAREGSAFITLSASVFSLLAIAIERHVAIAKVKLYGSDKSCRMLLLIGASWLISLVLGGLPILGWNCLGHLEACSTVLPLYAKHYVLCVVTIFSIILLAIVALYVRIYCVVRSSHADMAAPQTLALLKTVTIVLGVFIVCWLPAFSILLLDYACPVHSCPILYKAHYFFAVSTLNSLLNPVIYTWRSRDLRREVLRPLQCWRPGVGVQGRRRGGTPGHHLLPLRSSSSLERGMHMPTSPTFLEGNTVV

[11] = cytotoxicity toward NIH3T3 fibroblasts, dose response, counter-screen, cell-based, ATP luminescence, mouse fibroblasts (AID 2010); format: functional;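 also: cells exposed to compound for about 90 hours before reading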
[12] = target: T3, Sphingosine 1-phosphate receptor 4 (Homo sapiens, UniProt O95977); assay: Late stage fluorescence dose response cell-based screening assay for antagonists of the Sphingosine 1-Phosphate Receptor 4 (S1P4). [Related pubchem assays: 1524 (Confirmation screen (S1P4 antagonists).), 1510 (Primary screen (S1P4 antagonists).), 1853 (Summary AID (S1P4 antagonists).), 1692 (Dose response screen (S1P4 antagonists).)]; format: functional
T3 sequence (O95977 whole entry): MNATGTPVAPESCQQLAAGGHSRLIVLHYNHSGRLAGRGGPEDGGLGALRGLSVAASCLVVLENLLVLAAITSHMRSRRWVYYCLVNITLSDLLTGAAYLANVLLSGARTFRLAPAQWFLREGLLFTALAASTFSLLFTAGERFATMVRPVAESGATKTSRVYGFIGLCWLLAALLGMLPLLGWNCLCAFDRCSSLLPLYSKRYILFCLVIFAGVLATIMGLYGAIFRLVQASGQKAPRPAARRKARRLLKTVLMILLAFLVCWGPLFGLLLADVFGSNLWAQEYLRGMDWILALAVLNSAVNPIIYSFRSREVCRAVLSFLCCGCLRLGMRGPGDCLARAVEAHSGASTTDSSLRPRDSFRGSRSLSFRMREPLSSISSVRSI

[13] = target: T3, Sphingosine 1-phosphate receptor 4; assay: Fluorescence dose response cell-based high throughput screening assay for antagonists of the Sphingosine 1-Phosphate Receptor 4 (S1P4). [Related pubchem assays: 1524 (Confirmation in triplicates.), 1510 (Primary screen.)]; format: functional
[14] = target: T1, Sphingosine 1-phosphate receptor 1; format: functional
[15] = tested on: Streptococcus; assay: Group A Streptococcus viability loss, dose response, counter-screen for streptokinase expression inhibitor project, luminescence, BacTiterGlo (AID 1915); format: functional, organism-based;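 also: potency for reduction of bacterial viability or growth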
[16] = Shn3 3'UTR reporter inhibitors, dose response, cell-based, Clone20 osteoblasts, firefly luciferase, cherry-picked (AID 624132); format: functional;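 also: firefly luciferase luminescence from reporter carrying the Shn3 3'UTR in osteoblasts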
[17] = HepG2 cell cytotoxicity, dose response, cytotoxicity control for Shn3 inhibitor project, CellTiter-Glo, cherry-picked (AID 624134); format: functional, cell-based
[18] = target: Paired box protein Pax-8 (Homo sapiens, UniProt Q06710); assay: inhibitors of PAX8-driven TPO luciferase reporter, dose response, RMG-I cells, cherry-pick (AID 687027); format: functional, cell-based;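 also: luciferase reporter driven by Pax8 target thyroperoxidase promoter measured by SteadyGlo luminescence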
Paired box protein Pax-8, sequence (Q06710 whole entry): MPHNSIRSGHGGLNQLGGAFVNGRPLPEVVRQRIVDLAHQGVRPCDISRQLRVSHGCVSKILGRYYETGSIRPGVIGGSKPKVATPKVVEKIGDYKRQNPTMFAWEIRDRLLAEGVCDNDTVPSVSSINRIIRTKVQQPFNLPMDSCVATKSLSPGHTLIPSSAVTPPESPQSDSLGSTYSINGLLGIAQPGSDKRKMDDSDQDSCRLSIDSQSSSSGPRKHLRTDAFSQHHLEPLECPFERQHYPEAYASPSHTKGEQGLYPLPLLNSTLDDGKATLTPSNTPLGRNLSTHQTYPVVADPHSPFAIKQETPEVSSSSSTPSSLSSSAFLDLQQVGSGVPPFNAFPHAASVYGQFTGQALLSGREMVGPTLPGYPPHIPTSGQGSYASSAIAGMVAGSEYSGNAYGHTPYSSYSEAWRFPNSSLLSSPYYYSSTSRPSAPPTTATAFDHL

[19] = Luminescence-based counterscreen assay for KLF5 inhibitors: dose response cell-based high throughput screening assay to identify cytotoxic compounds using the IEC-6 intestinal epithelial cell line. [Related pubchem assays: 1700 (Primary screen.), 1834 (Confirmation screen.), 1858 (Summary AID.), 1905 (Counterscreen.)]; format: functional
[20] = target: T4, Microphthalmia-associated transcription factor (Homo sapiens, UniProt O75030); assay: TRPM1 promoter luciferase signal decrease, dose response, MITF inhibitor project, cell-based, SK-MEL-5, cherry-picked, set 3 (AID 493073); format: functional
T4 sequence (O75030 whole entry): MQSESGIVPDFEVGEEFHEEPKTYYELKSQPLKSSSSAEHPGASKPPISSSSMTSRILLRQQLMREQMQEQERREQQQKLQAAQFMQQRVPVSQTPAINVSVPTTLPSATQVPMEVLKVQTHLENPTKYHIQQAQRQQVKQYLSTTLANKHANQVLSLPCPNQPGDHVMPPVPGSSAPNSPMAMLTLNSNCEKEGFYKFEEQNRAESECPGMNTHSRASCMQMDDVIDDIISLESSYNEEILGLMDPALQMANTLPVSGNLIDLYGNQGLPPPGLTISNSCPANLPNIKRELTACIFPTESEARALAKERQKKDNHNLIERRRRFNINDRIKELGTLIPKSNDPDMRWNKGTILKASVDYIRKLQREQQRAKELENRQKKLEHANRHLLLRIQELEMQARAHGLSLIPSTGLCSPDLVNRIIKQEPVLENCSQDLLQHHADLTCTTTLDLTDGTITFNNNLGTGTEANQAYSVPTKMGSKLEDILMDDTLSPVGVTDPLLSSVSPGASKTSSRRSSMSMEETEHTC

[21] = target: T5, Protein skinhead-1 (Caenorhabditis elegans, UniProt P34707); format: functional
T5 sequence (P34707 whole entry): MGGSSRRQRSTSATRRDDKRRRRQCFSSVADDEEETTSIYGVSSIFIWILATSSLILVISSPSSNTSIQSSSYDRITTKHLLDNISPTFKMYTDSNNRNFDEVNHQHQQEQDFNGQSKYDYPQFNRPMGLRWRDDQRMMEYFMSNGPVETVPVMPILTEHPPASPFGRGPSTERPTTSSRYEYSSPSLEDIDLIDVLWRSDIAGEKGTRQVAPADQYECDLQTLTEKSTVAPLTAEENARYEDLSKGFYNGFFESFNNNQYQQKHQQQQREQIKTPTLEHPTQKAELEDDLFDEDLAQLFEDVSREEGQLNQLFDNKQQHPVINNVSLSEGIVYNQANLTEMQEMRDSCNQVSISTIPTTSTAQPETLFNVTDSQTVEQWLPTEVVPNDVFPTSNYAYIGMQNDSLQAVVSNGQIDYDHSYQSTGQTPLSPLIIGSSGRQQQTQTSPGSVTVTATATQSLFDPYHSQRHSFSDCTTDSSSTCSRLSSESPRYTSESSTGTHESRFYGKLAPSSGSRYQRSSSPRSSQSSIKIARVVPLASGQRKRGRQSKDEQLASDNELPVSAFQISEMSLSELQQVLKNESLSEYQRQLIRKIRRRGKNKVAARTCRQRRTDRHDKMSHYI

[22] = target: Photoreceptor-specific nuclear receptor (Homo sapiens, UniProt Q9Y5X4); format: functional, cell-based;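 also: CHO-S cells with Gal4-NCOR and VP16-NR2E3 two-hybrid luciferase reporter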
Photoreceptor-specific nuclear receptor, sequence (Q9Y5X4 whole entry, the tested form may be a part): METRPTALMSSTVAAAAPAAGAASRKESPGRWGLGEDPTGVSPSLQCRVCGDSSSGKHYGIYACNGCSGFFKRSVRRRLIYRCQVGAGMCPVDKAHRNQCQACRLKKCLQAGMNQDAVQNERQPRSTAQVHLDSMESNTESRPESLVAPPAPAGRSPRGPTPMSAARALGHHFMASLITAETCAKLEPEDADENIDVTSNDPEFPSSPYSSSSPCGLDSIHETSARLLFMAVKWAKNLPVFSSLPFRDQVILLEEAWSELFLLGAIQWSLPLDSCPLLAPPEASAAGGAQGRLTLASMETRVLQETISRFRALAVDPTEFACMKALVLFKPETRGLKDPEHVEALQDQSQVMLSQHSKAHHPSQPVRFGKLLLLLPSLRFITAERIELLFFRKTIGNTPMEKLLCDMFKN

[23] = reduction of Shn3 3'UTR firefly luciferase signal, dose response, Schnurri-3 inhibitor project, cell-based, Clone20 osteoblasts, cherry-pick, set 2 (AID 720490); format: functional;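 also: actives lower the luminescence signal as inhibitors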
[24] = target: NS3 (Hepatitis C virus, UniProt A3EZJ3); assay: PubChem AID 2173; parameters: species or system Hepacivirus hominis
NS3, sequence (A3EZJ3 whole entry): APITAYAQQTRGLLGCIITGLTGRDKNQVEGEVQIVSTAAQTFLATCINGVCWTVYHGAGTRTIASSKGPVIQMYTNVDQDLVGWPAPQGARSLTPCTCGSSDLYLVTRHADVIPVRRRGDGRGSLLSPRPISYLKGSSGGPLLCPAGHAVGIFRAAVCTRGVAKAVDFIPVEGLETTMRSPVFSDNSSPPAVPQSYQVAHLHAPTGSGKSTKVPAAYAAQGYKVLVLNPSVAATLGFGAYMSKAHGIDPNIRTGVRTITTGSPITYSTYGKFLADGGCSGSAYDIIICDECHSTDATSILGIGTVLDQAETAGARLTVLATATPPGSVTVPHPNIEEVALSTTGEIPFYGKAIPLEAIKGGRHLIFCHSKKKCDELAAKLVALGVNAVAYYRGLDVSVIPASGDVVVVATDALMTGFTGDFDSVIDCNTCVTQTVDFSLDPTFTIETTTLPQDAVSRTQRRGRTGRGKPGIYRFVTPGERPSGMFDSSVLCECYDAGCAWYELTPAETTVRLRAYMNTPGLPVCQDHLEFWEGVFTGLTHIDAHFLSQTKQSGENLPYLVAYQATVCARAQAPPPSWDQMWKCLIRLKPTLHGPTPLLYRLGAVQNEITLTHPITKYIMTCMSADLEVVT

[25] = Vero cell cytotoxicity, dose response, cytotoxicity control for Vif-APOBEC3G degradation inhibitor project, Vero cells (AID 1117358); format: functional; conditions: Human immunodeficiency virus 1, Vero
[26] = target: Muscarinic acetylcholine receptor M4 (Rattus norvegicus, UniProt P08485); assay: Discovery of novel allosteric modulators of the M1 muscarinic receptor: Agonist NMS competition at M4. [Related pubchem assays: 626, 1488, 1741 ]; format: functional
Muscarinic acetylcholine receptor M4, sequence (P08485 whole entry): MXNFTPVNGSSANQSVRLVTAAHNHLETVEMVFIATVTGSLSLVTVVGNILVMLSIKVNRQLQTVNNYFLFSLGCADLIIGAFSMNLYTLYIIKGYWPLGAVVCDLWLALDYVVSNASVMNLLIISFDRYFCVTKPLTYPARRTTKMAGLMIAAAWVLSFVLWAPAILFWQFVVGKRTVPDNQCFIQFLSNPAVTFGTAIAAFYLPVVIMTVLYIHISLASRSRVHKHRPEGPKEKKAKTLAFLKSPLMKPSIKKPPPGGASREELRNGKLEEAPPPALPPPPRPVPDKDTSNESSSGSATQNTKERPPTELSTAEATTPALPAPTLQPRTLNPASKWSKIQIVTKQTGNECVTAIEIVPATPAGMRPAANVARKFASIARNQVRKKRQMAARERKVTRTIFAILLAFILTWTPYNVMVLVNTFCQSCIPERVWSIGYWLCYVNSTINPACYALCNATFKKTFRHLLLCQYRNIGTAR

[27] = target: Muscarinic acetylcholine receptor M2 (Homo sapiens, UniProt P08172); assay: Discovery of novel allosteric modulators of the M1 muscarinic receptor: Agonist NMS competition at M2. [Related pubchem assays: 626 (Discovery of Novel Allosteric Modulators of the M1 Muscarinic Receptor: Agonist Primary Screen), 1488 (Discovery of novel allosteric modulators of the M1 muscarinic receptor: Agonist Confirmation Assay)]; format: functional
[28] = target: Muscarinic acetylcholine receptor M5 (Homo sapiens, UniProt P08912); assay: Discovery of novel allosteric modulators of the M1 muscarinic receptor: Agonist NMS competition at M5. [Related pubchem assays: 1488 (Discovery of novel allosteric modulators of the M1 muscarinic receptor: Agonist Confirmation Assay), 626 (Discovery of Novel Allosteric Modulators of the M1 Muscarinic Receptor: Agonist Primary Screen)]; format: functional
[29] = target: Muscarinic acetylcholine receptor M3 (Homo sapiens, UniProt P20309); assay: Discovery of novel allosteric modulators of the M1 muscarinic receptor: Agonist NMS competition at M3. [Related pubchem assays: 1488 (Discovery of novel allosteric modulators of the M1 muscarinic receptor: Agonist Confirmation Assay), 626 (Discovery of Novel Allosteric Modulators of the M1 Muscarinic Receptor: Agonist Primary Screen)]; format: functional
Muscarinic acetylcholine receptor M3, sequence (P20309 whole entry): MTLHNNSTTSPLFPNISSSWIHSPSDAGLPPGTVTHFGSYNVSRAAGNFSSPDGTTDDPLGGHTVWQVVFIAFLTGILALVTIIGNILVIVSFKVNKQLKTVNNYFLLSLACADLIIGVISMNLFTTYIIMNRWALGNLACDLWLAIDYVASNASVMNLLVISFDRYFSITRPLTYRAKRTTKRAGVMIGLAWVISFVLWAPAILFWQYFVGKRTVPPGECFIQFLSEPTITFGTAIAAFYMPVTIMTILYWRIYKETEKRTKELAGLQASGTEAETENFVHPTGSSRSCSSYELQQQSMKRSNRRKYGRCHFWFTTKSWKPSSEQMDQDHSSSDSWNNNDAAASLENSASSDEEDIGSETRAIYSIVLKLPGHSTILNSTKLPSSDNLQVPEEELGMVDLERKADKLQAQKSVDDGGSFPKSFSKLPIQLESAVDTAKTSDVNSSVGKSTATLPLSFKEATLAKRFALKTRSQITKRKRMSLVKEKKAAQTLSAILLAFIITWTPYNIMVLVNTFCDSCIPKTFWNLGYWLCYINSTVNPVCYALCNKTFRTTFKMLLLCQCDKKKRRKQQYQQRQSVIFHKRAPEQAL

[30] = target: Muscarinic acetylcholine receptor M1 (Rattus norvegicus, UniProt P08482); assay: Discovery of novel allosteric modulators of the M1 muscarinic receptor: Agonist NMS binding at M1. [Related pubchem assays: 626 ]
Muscarinic acetylcholine receptor M1, sequence (P08482 whole entry): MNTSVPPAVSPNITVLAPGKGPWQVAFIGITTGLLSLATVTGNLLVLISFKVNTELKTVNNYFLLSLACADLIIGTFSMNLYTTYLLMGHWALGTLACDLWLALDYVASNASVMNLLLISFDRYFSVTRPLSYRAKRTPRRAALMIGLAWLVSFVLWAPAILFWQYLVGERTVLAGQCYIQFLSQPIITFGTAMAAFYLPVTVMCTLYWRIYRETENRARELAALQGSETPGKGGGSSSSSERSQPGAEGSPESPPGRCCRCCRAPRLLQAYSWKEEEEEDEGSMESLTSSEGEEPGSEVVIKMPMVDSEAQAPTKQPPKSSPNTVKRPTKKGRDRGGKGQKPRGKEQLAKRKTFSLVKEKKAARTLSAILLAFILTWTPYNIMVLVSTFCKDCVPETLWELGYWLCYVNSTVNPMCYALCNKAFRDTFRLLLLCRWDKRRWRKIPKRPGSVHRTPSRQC

[31] = cytotoxicity in HPDE-C7 cells, cell-based, fluorescence, HTS (AID 430); format: functional; conditions: Homo sapiens
[32] = cytotoxicity in KRAS-transformed pancreatic duct cells, primary screen, cell-based, fluorescence, HTS (AID 431); format: functional; conditions: Homo sapiens;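 also: cell line used: HPDE-C7K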
[33] = inhibitors of Bluetongue virus cytopathic effect, confirmation, arbovirus, BSR cells (AID 1250); format: functional;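 also: protection from viral cytopathic effect measured as cell viability by ATP luminescence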

Sphingosine 1-phosphate receptor 5, sequence (Q9H228 whole entry): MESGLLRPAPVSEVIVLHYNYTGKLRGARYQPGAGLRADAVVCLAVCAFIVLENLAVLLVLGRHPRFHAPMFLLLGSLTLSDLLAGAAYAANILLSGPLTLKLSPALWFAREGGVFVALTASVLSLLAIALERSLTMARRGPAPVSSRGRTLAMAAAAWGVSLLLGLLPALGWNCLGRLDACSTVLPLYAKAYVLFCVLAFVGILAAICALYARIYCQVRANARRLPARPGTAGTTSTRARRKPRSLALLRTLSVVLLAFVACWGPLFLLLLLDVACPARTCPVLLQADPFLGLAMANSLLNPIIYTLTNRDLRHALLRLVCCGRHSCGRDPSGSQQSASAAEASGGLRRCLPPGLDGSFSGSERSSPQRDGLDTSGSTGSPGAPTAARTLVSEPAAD

O=C(Nc1ccccc1)Nc1cc(OCC(F)(F)F)cc(OCC(F)(F)F)c1
IC50 [1]: 1.3 µM (active)
IC50 [2]: 1.68 µM (active)
EC50 [3]: 6.81 µM (active)
EC50 [4]: 4.56 µM (active)
IC50 [5]: > 25 µM (inactive)
EC50 [6]: 7.18 µM (active)
EC50 [7]: 6.09 µM (active)
EC50 [8]: 18.1 µM (active)
EC50 [9]: 0.719 µM (active)
IC50 [10]: 2.35 µM (active)
EC50 [11]: < 6 µM (inconclusive)
IC50 [12]: 0.0827 µM (active)
IC50 [13]: 0.26 µM (active)
IC50 [14]: > 49.8 µM (not active)
EC50 [15]: 9.63 µM (active)
AC50 [16]: 6.4 µM (active)
AC50 [17]: 6.97 µM (active)
AC50 [18]: 6.93 µM (active)

CC(C)(C)C(=O)Nc1cc2nn(-c3ccccc3)nc2cc1Cl
IC50 [19]: > 39.8 µM (not active)
AC50 [20]: 0.495 µM (active)
AC50 [16]: 5.16 µM (active)
AC50 [17]: > 70 µM (inactive)
IC50 [21]: > 100 µM (inactive)
IC50 [22]: 0.152 µM (active)
AC50 [23]: 49.5 µM (active)

O=c1c2c(-c3ccco3)csc2nc(SCc2cn3cccnc3n2)n1-c1ccccc1
EC50 [3]: 13.9 µM (active)
EC50 [6]: > 120 µM (not active)
EC50 [7]: 38.5 µM (active)
IC50 [24]: 49.7 µM (not active)
CC50 [25]: > 40 µM (active)

CCOC(=O)N1CCC(NCCNC(=O)c2ccccc2C)CC1
EC50 [26]: 240 µM (inconclusive)
EC50 [27]: 95.7 µM (inconclusive)
EC50 [28]: 24.1 µM (inconclusive)
EC50 [29]: 360 µM (inconclusive)
EC50 [30]: 25.1 µM (inconclusive)

CCOC(=O)C1=Nc2ccccc2C1=[N+]=[N-]
EC50 [4]: 0.379 µM (active)
EC50 [31]: 19.9 µM (active)
EC50 [32]: 7.83 µM (active)
IC50 [33]: 21.4 µM (active)
EC50 [15]: 2.27 µM (active)
